This note sets out measurements from patent US20260256789A1, “METHODS FOR TREATMENT OF CANCER” (Frontier Medicines Corporation, priority 2022, published 2026).

By IC50 is commonly meant the midpoint of a concentration-inhibition curve. Read a high IC50 as weaker potency in that assay.

T1 sequence (P01116 1-169 isoform P01116-2 G12C/C51S/C80L/C118S): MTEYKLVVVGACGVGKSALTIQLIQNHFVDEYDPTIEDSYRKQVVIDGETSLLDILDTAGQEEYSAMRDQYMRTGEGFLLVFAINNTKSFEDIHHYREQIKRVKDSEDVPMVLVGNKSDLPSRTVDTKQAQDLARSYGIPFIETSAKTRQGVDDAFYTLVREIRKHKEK

This assay concerns the target T1, KRAS G12C (GMPPNP-loaded) and cRAF Ras-binding domain (Homo sapiens, UniProt P01116, C118S/C51S/C80L/G12C).
T1 construct: truncated version comprising amino acids 1-169
As to the kind of experiment: Inhibition of KRAS G12C and cRAF binding (AlphaScreen). The conditions noted are these: KRAS G12C preloaded with GTP analogue GMPPNP, 2 hours preincubation. An excerpt:
The ability of compounds of Formula (A), Formula (B) and Formula (C), and pharmaceutically acceptable salts and/or isotopologues thereof, to inhibit activity of the GTP-bound form of KRAS G12C can be tested using methods such as the in vitro assay described in Example 179 below. Example 179 describes determining, for various compounds, the half-maximal inhibition (IC50) of KRAS G12C loaded with GTP analogue GMPPNP from binding to cRaf, as the Ras-binding domain (RBD). Example 180 describes determining, for various compounds, the half-maximal inhibition (IC50) of KRAS G12C loaded with GTP analogue GMPPNP from binding to PI3Kα, as the Ras-binding domain (RBD). Example 181 describes testing compounds for the ability to inhibit cell viability in MCF10A G12C/A59G mutant, which abrogates GTPase activity, thus preventing hydrolysis of GTP to GDP.
The AlphaScreen technology was used to determine IC50s for compound inhibition of KRAS G12C (present as the Cys-light (C51S, C80L and C118S), truncated version comprising amino acids 1-169) and cRAF interaction. Compounds were diluted in 100% DMSO and each compound concentration was spotted at 200 nl/well onto low volume, white 384 well plates. The KRAS G12C contained a biotin-AviTag and the cRaf, as Ras-binding domain (amino acids 50-131, RBD), was GST-tagged. KRAS G12C was preloaded with the GTP analogue Guanosine 5′-[β,γ-imido]triphosphate (GMPPNP). The KRAS G12C was diluted in 25 mM Hepes, pH 7.4, 150 mM NaCl, 5 mM MgCl2, 0.01% TritonX-100 and 10 μM GMPPNP and added at 10 ul/well to compound-spotted plates resulting in a DMSO concentration of 2%. Plates were incubated for 2 hours. A mixture of RBD and the AlphaScreen streptavidin donor and glutathione acceptor beads diluted in 25 mM Hepes, pH 7.4, 150 mM NaCl, 5 mM MgCl2, 0.01% TritonX-100 and 2% DMSO was then added at 10 ul/well and incubated for 60-90 minutes before the samples were read for emission at 570 nm after excitation of the donor beads at 680 nm. All incubations were performed at room temperature. The final top compound concentration was 50 μM with 1:3 titrations for 10-point dose response curves. Final assay conditions were 0.5 nM KRAS G12C, 0.75 nM RBD and 5 μg/ml each of AlphaScreen donor and acceptor beads. IC50s were determined using nonlinear regression fit of [inhibitor] vs. response (4 parameters). […]
In turn, `Cc1noc(/C=C/C(=O)N2CC[C@@H](N(C)c3nc(OCC45CCCN4CCC5)nc4c3C[C@@H](C)[C@H](c3nc(N)cc(C)c3C(F)(F)F)C4)C2)n1` (single isomer, unassigned) [Compound 9] yielded an IC50 of 100 to 500 nM. In turn, `CN1CC[C@H]1/C=C/C(=O)N1CC[C@@H](N(C)c2nc(OC[C@@]34CCCN3C[C@H](F)C4)nc3c(F)c(-c4nc(N)cc5cccc(F)c45)ncc23)C1` (single isomer, unassigned) [Example 2] showed an IC50 of 100 to 500 nM. Compound `CN1CC[C@@H]1/C=C/C(=O)N1CC[C@@H](N(C)c2nc(OC[C@@]34CCCN3C[C@H](F)C4)nc3c(F)c(-c4nc(N)cc5cccc(Cl)c45)ncc23)C1` (single isomer, unassigned) [Example 3] came in with an IC50 of 10 to 100 nM.

As to `CN1CC[C@H]1/C=C/C(=O)N1CC[C@@H](N(C)c2nc(OC[C@@]34CCCN3C[C@H](F)C4)nc3c(F)c(-c4nc(N)cc5cccc(Cl)c45)ncc23)C1` (single isomer, unassigned) [Example 6], the IC50 is below 10 nM. With `CN1CC[C@@H]1/C=C/C(=O)N1CC[C@@H](N(C)c2nc(OC[C@@]34CCCN3C[C@H](F)C4)nc3c(F)c(-c4nc(N)cc5cccc(F)c45)ncc23)C1` (single isomer, unassigned) [Example 7] the figure was below 10 nM; with `Cc1noc(/C=C/C(=O)N2CC[C@@H](N(C)c3nc(OCC45CCCN4CCC5)nc4c3C[C@H](C)[C@@H](c3nc(N)cc(C)c3C(F)(F)F)C4)C2)n1` (single isomer, unassigned) [Example 17], 10 to 100 nM.

For `C=CC(=O)N1CC[C@@H](N(C)c2nc(OCC34CCCN3CCC4)nc3c2C[C@H](C)[C@@H](c2nc(N)cc(C)c2C(F)(F)F)C3)C1` (single isomer, unassigned) [Example 18], the concentration for half-maximal inhibition (IC50) was in the range of 100 to 500 nM. The value for `Cc1cc(N)nc(-c2ncc3c(N(C)[C@@H]4CCN(C(=O)/C=C/[C@H]5CCN5C)C4)nc(OC[C@@]45CCCN4C[C@H](F)C5)nc3c2F)c1C(F)(F)F` (single isomer, unassigned) [Example 26] was below 10 nM. With `Cc1cc(N)nc(-c2ncc3c(N(C)[C@@H]4CCN(C(=O)/C=C/[C@@H]5CCN5C)C4)nc(OC[C@@]45CCCN4C[C@H](F)C5)nc3c2F)c1C(F)(F)F` (single isomer, unassigned) [Example 27] the figure was below 10 nM; with `Cc1cc(N)nc(-c2ncc3c(N(C)[C@@H]4C[C@@H](C)N(C#N)C4)nc(OC[C@@]45CCCN4C[C@H](F)C5)nc3c2F)c1C(F)(F)F` (single isomer, unassigned) [Example 40], 10 to 100 nM.

On to `C=CC(=O)N1CC(CN(C)c2nc(OCC34CCCN3CCC4)nc3c2C[C@H](C)[C@@H](c2nc(N)cc(C)c2C(F)(F)F)C3)C1` (single isomer, unassigned) [Example 50], for which the IC50 is at least 500 nM.

`Cc1noc(/C=C/C(=O)N2CC[C@@H](N(C)c3nc(OC[C@@]45CCCN4C[C@H](F)C5)nc4c3C[C@@H](C)[C@H](c3nc(N)cc(C)c3C(F)(F)F)C4)C2)n1` (single isomer, unassigned) [Example 57]: the IC50 is below 10 nM. The value for `C=CC(=O)N1CC(CN(C)c2nc(OC[C@@]34CCCN3C[C@H](F)C4)nc3c2C[C@@H](C)[C@H](c2nc(N)cc(C)c2C(F)(F)F)C3)C1` (single isomer, unassigned) [Example 58] was 100 to 500 nM.

Regarding `C=CC(=O)N1CC[C@@H](N(C)c2nc(OC[C@@]34CCCN3C[C@H](F)C4)nc3c(F)c(-c4cccc(Cl)c4C4CC4)ncc23)[C@H]1C` (single isomer, unassigned) [Example 77], the IC50 lay in the range of 100 to 500 nM. The compound `C=CC(=O)N1CC[C@@H](N(C)c2nc(OC[C@@]34CCCN3C[C@H](F)C4)nc3c(F)c(-c4cccc(Cl)c4C(F)(F)F)ncc23)[C@H]1C` (single isomer, unassigned) [Example 78] gave an IC50 of 10 to 100 nM. For `Cc1nsc(/C=C/C(=O)N2CC(CN(C)c3nc(OC[C@@]45CCCN4C[C@H](F)C5)nc4c3C[C@@H](C)[C@H](c3nc(N)cc(C)c3C(F)(F)F)C4)C2)n1` (single isomer, unassigned) [Example 126], the IC50 lay within 10 to 100 nM.

In turn, `Cc1cc(N)nc([C@H]2Cc3nc(OC[C@@]45CCCN4C[C@H](F)C5)nc(N(C)CC4CN(C(=O)/C=C/c5nc(C(C)(C)O)no5)C4)c3C[C@@H]2C)c1C(F)(F)F` (single isomer, unassigned) [Example 155] had an IC50 of at least 500 nM. The value for `Cc1cc(N)nc([C@@H]2Cc3nc(OC[C@@]45CCCN4C[C@H](F)C5)nc(N(C)CC4CN(C(=O)/C=C/c5nc(C(C)(C)O)no5)C4)c3C[C@H]2C)c1C(F)(F)F` (single isomer, unassigned) [Example 162] was 10 to 100 nM; that for `Cc1nsc(/C=C/C(=O)N2CC(CN(C)c3nc(OC[C@@]45CCCN4C[C@H](F)C5)nc4c3C[C@H](C)[C@@H](c3nc(N)cc(C)c3C(F)(F)F)C4)C2)n1` (single isomer, unassigned) [Example 174] was at least 500 nM. With `Cc1cc(N)nc(-c2ncc3c(N(C)[C@@H]4CCN(C(=O)/C=C/C5CCN5C)C4)nc(OC[C@@]45CCCN4C[C@H](F)C5)nc3c2F)c1C(F)(F)F` (stereo in doubt) [Example 134] the figure was below 10 nM; with `Cc1noc(/C=C/C(=O)N2CC[C@@H](N(C)c3nc(OCC45CCCN4CCC5)nc4c3C[C@H](C)C(c3nc(N)cc(C)c3C(F)(F)F)C4)C2)n1` (stereo in doubt) [Example 163], 10 to 100 nM. With `Cc1nsc(/C=C/C(=O)N2CC(CN(C)c3nc(OC[C@@]45CCCN4C[C@H](F)C5)nc4c(F)c(-c5nc(N)cc(C)c5C(F)(F)F)ncc34)C2)n1` [Example 4, (E)-1-(3-(((7-(6-amino-4-methyl-3-(trifluoromethyl)pyridin-2-yl)-8-fluoro-2-(((2R,7aS)-2-fluorohexahydro-1H-pyrrolizin-7a-yl)methoxy)pyrido[4,3-d]pyrimidin-4-yl)(methyl)amino)methyl)azetidin-1-yl)-3-(3-methyl-1,2,4-thiadiazol-5-yl)prop-2-en-1-one] the figure was 10 to 100 nM; with `C=CC(=O)N1CC[C@@H](N(C)c2nc(OC[C@@]34CCCN3C[C@H](F)C4)nc3c(F)c(-c4nc(N)cc(C)c4C4CC4)ncc23)C1` [Example 5, 1-((R)-3-((7-(6-amino-3-cyclopropyl-4-methylpyridin-2-yl)-8-fluoro-2-(((2R,7aS)-2-fluorotetrahydro-1H-pyrrolizin-7a(5H)-yl)methoxy)pyrido[4,3-d]pyrimidin-4-yl)(methyl)amino)pyrrolidin-1-yl)prop-2-en-1-one], 100 to 500 nM.

`CC(C)c1noc(/C=C/C(=O)N2CC[C@@H](N(C)c3nc(OC[C@@]45CCCN4C[C@H](F)C5)nc4c(F)c(-c5nc(N)ccc5C5CC5)ncc34)C2)n1` [Example 8, (E)-1-((R)-3-((7-(6-amino-3-cyclopropylpyridin-2-yl)-8-fluoro-2-(((2R,7aS)-2-fluorotetrahydro-1H-pyrrolizin-7a(5H)-yl)methoxy)pyrido[4,3-d]pyrimidin-4-yl)(methyl)amino)pyrrolidin-1-yl)-3-(3-isopropyl-1,2,4-oxadiazol-5-yl)prop-2-en-1-one] displayed a concentration for half-maximal inhibition (IC50) of 10 to 100 nM.
